From patent US20070141158A1, “Amphiphilic heparin derivative formed by coupling a heparin with a bile acid” (ETHYPHARM, priority 2003, published 2007)

Assay: Incorporation (solubilization) of hydrophobic active ingredients into aqueous solution of heparin hydrophobized with cholic acid (HEP19CHO), dissolution method
Assay type: physicochemical
Settings: for increase of quantity in solution: HEP19CHO (Cp=8.6 mg/ml) after 6 days of incorporation, versus water (FIG. 4)
Experimental: An example of a method of incorporation by direct dissolution is described below. 30 mg of hydrophobized heparin are introduced into a tube and 3 ml of distilled water are added thereto. After dissolution, a large excess of active ingredient (15 to 30 mg) is introduced into the mixture.
A phase of stirring the mixture obtained is carried out by means of a magnetic stirrer bar for several days. The mixture is then centrifuged and the supernatant is passed through a 0.45 μm filter. The quantity of active ingredient solubilized in the solutions of hydrophobized heparin may be determined by UV/visible spectroscopy or by HPLC.
The nonsolubilized active ingredient is removed after filtration of the solutions on a membrane having a porosity of 0.45 μm. The quantity of active ingredient in solution is then determined. Having determined the quantities solubilized in water and those dissolved in the hydrophobic domains, it is then possible to calculate a partition coefficient hydrophobic domains/water which is called Log P′ by analogy with Log P.
Indeed, the relative solubility of molecules between an oily phase and an aqueous phase is described by the partition coefficient P which represents the distribution of the molecules between two solvents, generally water and octanol. The use of its logarithm, log P, is often preferred. […] Likewise for Log P′ which expresses the ratio of the solubilities of the active agent in water and in the solution of hydrophobized heparin.
The incorporation of active ingredients was essentially carried out by the dissolution method. In this method, the compound to be incorporated is placed in solid form in a tube containing water or a colloidal solution of hydrophobized heparin, at the concentration Cp (mg/ml).
The mixing is performed with stirring at room temperature for various times. The compound to be incorporated remains at saturating concentration in the medium. At the end of the incorporation period, the tubes are subjected to a centrifugation step and the supernatants are filtered on 0.45 μm filters and assayed. Control solutions (water or nonhydrophobized heparin) are treated in the same manner.
The quantity of active ingredient incorporated into the various media is quantified by HPLC and/or by measuring the UV absorbance.
Thus, the incorporation is expressed in milligram of active ingredient per gram of polymer (mg/g P) or in micromole of active ingredient per gram of polymer (μmol/g P). This incorporation level is calculated by taking the ratio between the concentration of the active ingredient in solution and the concentration of the polymer. […] The difference in concentration of active ingredients in water and in a solution of hydrophobized heparin represents the quantity of active ingredient effectively present in hydrophobic micro-domains formed by the grouping together of cholic acid residues.

increase of quantity in solution | times as soluble in a solution of hydrophobized heparin as in water (HEP19CHO solution versus water) | level of incorporation into the hydrophobic domains (HEP19CHO 8 mg/ml, after 3 days) [mg/g P] | gain in solubility relative to water (HEP19CHO calcium salt, 8 mg/ml, after 3 days (FIG. 3)) | concentration of carbamazepine present in the hydrophobic domains (HEP19CHO solution 8 mg/ml, after 3 days, HEP19CHO solution minus aqueous phase) [µg/mL] | Structure (SMILES) | affinity for the hydrophobic domains (among the molecules tested) (HEP19CHO, Table 5 molecules)
> 2000 fold | more than 2000 times |  |  |  | CCC(C)n1ncn(-c2ccc(N3CCN(c4ccc(OCC5COC(Cn6cncn6)(c6ccc(Cl)cc6Cl)O5)cc4)CC3)cc2)c1=O (stereo not shown) [Itraconazole] | 
increased ten fold |  | 70 | exceeds 500% | 560 | NC(=O)N1c2ccccc2C=Cc2ccccc21 [Carbamazepine] | highest affinity for the hydrophobic domains
